In brackets after ≈: the same amount, converted by molar mass. Where two headings read alike, the source gives them in different places.
Legend:
[1] = test system: Methicillin resistant S. aureus IBRS MRSA 011; assay: Antimicrobial microdilution assay (MIC/MBC); format: cell-based, Staphylococcus aureus; details: for MBC: subcultivation, 24 h at 37 °C, read-out: MBC
Description: (§1) The bacterial suspension (0.5 Mc Farland) was prepared, and twenty-fold dilutions of these suspensions were mixed in a 1:10 ratio with the corresponding polyphenol dilution (0.0039–1 mg/mL). Microtiter plates were incubated at 37 °C for 24 h. The lowest concentrations without visible growth (under a binocular microscope) were defined as MICs. The bactericidal concentrations (MBCs) were determined by serial subcultivation of 2 μL of the well’s content and further incubation for 24 h at 37 °C. Streptomycin (SigmaAldrich, Darmstadt, Germany) was used as a positive control. The polyphenols were obtained from Extrasynthese, Rhone, France (rutin, isoquercitrin) and SigmaAldrich, Germany (hesperetin, hesperidin, naringenin, naringin, taxifolin, morin, chlorogenic acid, ferulic acid, p-coumaric acid, and gallic acid). The stock compounds were prepared in ethanol (30%), and adequate ethanol concentrations were used as the negative control in the assays. Experiments were done in triplicate.

P. aeruginosa IBRS P001 = assay: Antimicrobial microdilution assay (MIC/MBC); format: cell-based, Pseudomonas aeruginosa; details: Pseudomonas aeruginosa, IBRSP001; for MIC: 37 °C, 24 h, read-out: MIC; for MBC: subcultivation, 24 h at 37 °C, read-out: MBC
Description: as §1

P. aeruginosa MMA83 = assay: Antimicrobial microdilution assay (MIC/MBC); format: cell-based, Pseudomonas aeruginosa; details: Pseudomonas aeruginosa, MMA83; for MIC: 37 °C, 24 h, read-out: MIC; for MBC: subcultivation, 24 h at 37 °C, read-out: MBC
Description: as §1

E. coli IBRS E003 = assay: Antimicrobial microdilution assay (MIC/MBC); format: cell-based, Escherichia coli; details: Escherichia coli, IBRSE003; for MIC: 37 °C, 24 h, read-out: MIC; for MBC: subcultivation, 24 h at 37 °C, read-out: MBC
Description: as §1

E. coli IMD989 = assay: Antimicrobial microdilution assay (MIC/MBC); format: cell-based, Escherichia coli; details: Escherichia coli, IMD989; for MIC: 37 °C, 24 h, read-out: MIC; for MBC: subcultivation, 24 h at 37 °C, read-out: MBC
Description: as §1

A. baumannii 6077/12 = assay: Antimicrobial microdilution assay (MIC/MBC); format: cell-based, Acinetobacter baumannii; details: Acinetobacter baumannii, 6077/12; for MIC: 37 °C, 24 h, read-out: MIC; for MBC: subcultivation, 24 h at 37 °C, read-out: MBC
Description: as §1

A. baumannii S2/2 = assay: Antimicrobial microdilution assay (MIC/MBC); format: cell-based, Acinetobacter baumannii; details: Acinetobacter baumannii, S2/2; for MIC: 37 °C, 24 h, read-out: MIC; for MBC: subcultivation, 24 h at 37 °C, read-out: MBC
Description: as §1

K. pneumoniae IT977 = assay: Antimicrobial microdilution assay (MIC/MBC); format: cell-based, Klebsiella pneumoniae; details: Klebsiella pneumoniae, IT977; for MIC: 37 °C, 24 h, read-out: MIC; for MBC: subcultivation, 24 h at 37 °C, read-out: MBC
Description: as §1

K. pneumoniae Ni9 = assay: Antimicrobial microdilution assay (MIC/MBC); format: cell-based, Klebsiella pneumoniae; details: Klebsiella pneumoniae, NI9; for MIC: 37 °C, 24 h, read-out: MIC; for MBC: subcultivation, 24 h at 37 °C, read-out: MBC
Description: as §1

A. xylosoxidans 37F = assay: Antimicrobial microdilution assay (MIC/MBC); format: cell-based, Achromobacter xylosoxidans; details: Achromobacter xylosoxidans, 37F; for MIC: 37 °C, 24 h, read-out: MIC; for MBC: subcultivation, 24 h at 37 °C, read-out: MBC
Description: as §1

S. infantis 1371/1 = assay: Antimicrobial microdilution assay (MIC/MBC); format: cell-based, Salmonella Infantis; details: Salmonella enterica, 1371/1; for MIC: 37 °C, 24 h, read-out: MIC; for MBC: subcultivation, 24 h at 37 °C, read-out: MBC
Description: as §1

HaCaT cells = assay: Cytotoxicity in HaCaT cell line (crystal violet assay); format: cell-based, human; details: Homo sapiens; HaCaT, 24 h treatment, crystal violet; read-out: IC50 (compound concentration that inhibited 50% of the cell growth)
Description: For determination of the polyphenols’ cytotoxic effect, a crystal violet assay was used, with modifications. The cytotoxic effect of polyphenols was analyzed on spontaneously immortalized human skin keratinocytes (HaCaT, AddexBio No. T0020001, San Diego, CA, USA) cell lines. […] Cells (1 × 10^4 cells/well) were seeded in a 96-well plate (Sarstedt, Nümbrecht, Germany) 24 h before treatment. […] Cells were incubated with the compounds for 24 h. […] After crystal violet was removed, the plates were washed in a stream of tap water and left to air-dry at room temperature for 24 h. The absorbance was measured in a microplate reader (Multiskan™ FC Microplate Photometer, Thermo Scientific™) at 590 nm. The results were expressed as IC50 value in μg/mL. The criterion used to categorize the cytotoxic activity polyphenols was as follows: […] All analyses were performed in triplicate; each replicate was also quantified three times. Data were expressed as mean standard deviation, where applicable.

MRSA T144 = test system: MRSA T144; design: method as in PMID 31385700; details: cited from earlier work
[2] = test system: P. aeruginosa IBRS P001 biofilm; assay: Crystal violet antibiofilm assay (biofilm formation); format: cell-based, Pseudomonas aeruginosa; details: MIC and sub-MIC, 24 h, crystal violet, Figure 1
Description: After incubation, each well was washed twice with sterile PBS (phosphate-buffered saline, pH 7.4) and fixed with methanol for 10 min. After removal of methanol the plate was air-dried. The biofilm was stained with 0.1% crystal violet (Bio-Merieux, Marcy l’Etoile, France) for 30 min. The plate was washed with water, air dried, and the stain was dissolved with 200 μL of 96% ethanol (Zorka, Sabac, Serbia). The absorbance was read at 620 nm on a Multiskan™ FC microplate photometer (Thermo Scientific™, Waltham, MA, USA). The results are presented as biofilm forming capacity (%) compared to control.

[3] = test system: eleven antibiotic resistant strains of bacteria; assay: Antimicrobial assay, summary over the examined strains; format: cell-based; details: antibiotic resistant strains of Table 1; read-out: lowest MIC among the examined strains
Description: as §1

S. aureus USA300 = test system: S. aureus USA300; design: method as in PMID 34295320; details: methicillin resistant strain; cited from earlier work
[4] = Staphylococcus aureus, MRSA, 37 °C, 24 h, read-out: MIC

| Structure (SMILES) | MIC [1, 4] [µg/mL] | MBC ([1]; Staphylococcus aureus, MRSA) [µg/mL] | MIC (P. aeruginosa IBRS P001) [µg/mL] | MBC (P. aeruginosa IBRS P001) [µg/mL] | MIC (P. aeruginosa MMA83) [µg/mL] | MBC (P. aeruginosa MMA83) [µg/mL] | MIC (E. coli IBRS E003) [µg/mL] | MBC (E. coli IBRS E003) [µg/mL] | MIC (E. coli IMD989) [µg/mL] | MBC (E. coli IMD989) [µg/mL] | MIC (A. baumannii 6077/12) [µg/mL] | MBC (A. baumannii 6077/12) [µg/mL] | MIC (A. baumannii S2/2) [µg/mL] | MBC (A. baumannii S2/2) [µg/mL] | MIC (K. pneumoniae IT977) [µg/mL] | MBC (K. pneumoniae IT977) [µg/mL] | MIC (K. pneumoniae Ni9) [µg/mL] | MBC (K. pneumoniae Ni9) [µg/mL] | MIC (A. xylosoxidans 37F) [µg/mL] | MBC (A. xylosoxidans 37F) [µg/mL] | other results |
| --- | --- | --- | --- | --- | --- | --- | --- | --- | --- | --- | --- | --- | --- | --- | --- | --- | --- | --- | --- | --- | --- |
| O=c1c(O)c(-c2ccc(O)cc2O)oc2cc(O)cc(O)c12 [Morin, morin] | 120 (≈ 397 µM) | 250 (≈ 827 µM) | 120 (≈ 397 µM) | 250 (≈ 827 µM) | 1000 (≈ 3310 µM) | 1000 (≈ 3310 µM) | 250 (≈ 827 µM) | 500 (≈ 1650 µM) | > 1000 | > 1000 | 500 (≈ 1650 µM) | 500 (≈ 1650 µM) | 500 (≈ 1650 µM) | 500 (≈ 1650 µM) | > 1000 | > 1000 | 500 (≈ 1650 µM) | 1000 (≈ 3310 µM) | 500 (≈ 1650 µM) | 1000 (≈ 3310 µM) | MIC ([1]; Staphylococcus aureus, MRSA, restated in the discussion, read-out: MIC): 125 µg/mL (≈ 414 µM); MIC (S. infantis 1371/1): > 1000 µg/mL; MBC (S. infantis 1371/1): > 1000 µg/mL; IC50 (HaCaT cells): 347 ± 16 µg/mL (≈ 1150 µM); MIC (MRSA T144): 32 µg/mL (≈ 106 µM) |
| O=C1c2c(O)cc(O)cc2OC(c2ccc(O)c(O)c2)C1O (stereo not shown) [Taxifolin, taxifolin] | 250 (≈ 822 µM) | 500 (≈ 1640 µM) | 250 (≈ 822 µM) | 500 (≈ 1640 µM) | 1000 (≈ 3290 µM) | > 1000 | 500 (≈ 1640 µM) | 1000 (≈ 3290 µM) | 1000 (≈ 3290 µM) | 1000 (≈ 3290 µM) | 500 (≈ 1640 µM) | 1000 (≈ 3290 µM) | 500 (≈ 1640 µM) | 500 (≈ 1640 µM) | > 1000 | > 1000 | 1000 (≈ 3290 µM) | 1000 (≈ 3290 µM) | 1000 (≈ 3290 µM) | 1000 (≈ 3290 µM) | MIC ([1]; 37 °C, 24 h): 250 µg/mL (≈ 822 µM); MIC (S. infantis 1371/1): > 1000 µg/mL; MBC (S. infantis 1371/1): > 1000 µg/mL; reduction of biofilm formation (biomass), in words [2]: not significantly altered; IC50 (HaCaT cells): 495 ± 47 µg/mL (≈ 1630 µM); MIC [3]: 250 µg/mL (≈ 822 µM); MIC (S. aureus USA300): 512 µg/mL (≈ 1680 µM) |

From paper PMC8952364, “Polyphenols as Inhibitors of Antibiotic Resistant Bacteria—Mechanisms Underlying Rutin Interference with Bacterial Virulence” (Pharmaceuticals, 2022)
